The source of these data is ChEMBL document CHEMBL1145378 (J Med Chem, 2007).

The target in data set [1] is Voltage-gated inwardly rectifying potassium channel KCNH2 (Homo sapiens, UniProt Q12809).
Data set [2] in a line: Permeability from basolateral to apical side of the Caco-2 cell membrane. The format is ADME, cell-based. Conditions: human.
The nature of data set [3]: Permeability from apical to basolateral side of the Caco-2 cell membrane. The format is ADME, cell-based. Particulars: human. On the technique in general: Caco-2 cells form a polarised layer with tight junctions and transporters.
For another data set, the target named is hERG (KCNH2) (Homo sapiens, UniProt Q12809). The data set is described as follows: in vitro. Conditions: HEK293 cells that express hERG.

SMILES strings stand for the structures.

In general, Ki refers to a dissociation constant, usually derived from enzyme kinetics or from competition with a known ligand. The term Papp B→A denotes the apparent permeability from the basolateral to the apical side of a cell layer. One may read the Papp A→B as how fast a substance crosses the layer from the apical side. Lower therefore signals poor permeation. Usually inhibition stands for the percentage by which the read-out fell short of the control. Lower therefore signals a weak effect.

Chain of Voltage-gated inwardly rectifying potassium channel KCNH2 (Q12809 whole entry): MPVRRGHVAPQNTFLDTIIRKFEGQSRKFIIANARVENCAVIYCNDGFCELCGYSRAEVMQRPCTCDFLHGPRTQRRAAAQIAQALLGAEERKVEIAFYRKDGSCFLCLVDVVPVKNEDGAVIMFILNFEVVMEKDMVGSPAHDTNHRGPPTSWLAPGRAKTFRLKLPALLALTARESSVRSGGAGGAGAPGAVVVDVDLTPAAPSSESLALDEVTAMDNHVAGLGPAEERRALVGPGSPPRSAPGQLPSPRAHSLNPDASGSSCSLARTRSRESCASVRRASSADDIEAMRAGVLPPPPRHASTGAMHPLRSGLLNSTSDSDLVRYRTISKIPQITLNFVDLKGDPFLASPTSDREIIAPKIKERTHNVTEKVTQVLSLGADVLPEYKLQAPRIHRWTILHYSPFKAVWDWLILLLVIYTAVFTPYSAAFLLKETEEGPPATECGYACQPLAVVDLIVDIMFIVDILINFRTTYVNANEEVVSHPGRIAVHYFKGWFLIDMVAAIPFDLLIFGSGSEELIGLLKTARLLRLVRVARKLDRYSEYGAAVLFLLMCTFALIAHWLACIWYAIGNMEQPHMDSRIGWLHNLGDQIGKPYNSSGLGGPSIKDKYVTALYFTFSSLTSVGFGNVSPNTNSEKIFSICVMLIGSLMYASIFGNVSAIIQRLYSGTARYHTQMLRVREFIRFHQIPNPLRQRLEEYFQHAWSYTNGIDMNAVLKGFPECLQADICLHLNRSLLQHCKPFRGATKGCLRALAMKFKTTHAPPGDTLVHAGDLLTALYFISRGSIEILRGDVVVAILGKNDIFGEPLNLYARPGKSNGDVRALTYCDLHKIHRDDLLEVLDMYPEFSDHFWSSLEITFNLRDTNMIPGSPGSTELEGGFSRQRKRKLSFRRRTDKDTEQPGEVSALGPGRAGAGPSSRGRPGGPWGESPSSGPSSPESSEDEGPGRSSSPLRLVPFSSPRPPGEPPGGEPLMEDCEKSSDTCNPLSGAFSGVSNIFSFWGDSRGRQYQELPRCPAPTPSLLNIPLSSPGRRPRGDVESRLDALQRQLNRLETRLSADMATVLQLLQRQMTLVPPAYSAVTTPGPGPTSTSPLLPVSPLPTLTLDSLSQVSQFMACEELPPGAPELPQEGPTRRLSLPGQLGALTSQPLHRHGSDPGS
Chain of hERG (KCNH2) (Q12809 whole entry): as above

For `CC1(C)C2=C3C=C4C5=[N+](CCC4OC3CCN2c2ccc(CCCCCC(=O)NCCCCCCN(CCOc3ccc(NS(C)(=O)=O)cc3)CCc3ccc(NS(C)(=O)=O)cc3)cc21)c1ccc(S(=O)(=O)[O-])cc1C5(C)C` (configuration not stated), the Ki in data set [1] is 10 nM.

In data set [1], `CC1(C)C2=C3C=C4C5=[N+](CCC4OC3CCN2c2ccc(CC(=O)NCCCCCN(CCOc3ccc(NS(C)(=O)=O)cc3)CCc3ccc(NS(C)(=O)=O)cc3)cc21)c1ccc(S(=O)(=O)[O-])cc1C5(C)C` (configuration not stated) gave an inhibition constant (Ki) of 13 nM.

With `CS(=O)(=O)Nc1ccc(CCN(CCOc2ccc(NS(C)(=O)=O)cc2)c2ccc([N+](=O)[O-])c3nonc23)cc1`, in data set [2], the Papp B→A was determined as 18 ×10⁻⁶ cm/s. In addition, the Papp A→B in data set [3] was 3.7 ×10⁻⁶ cm/s.

`CC1(C)C2=C3C=C4C5=[N+](CCC4OC3CCN2c2ccc(CC(=O)NCCCN(CCOc3ccc(NS(C)(=O)=O)cc3)CCc3ccc(NS(C)(=O)=O)cc3)cc21)c1ccc(S(=O)(=O)[O-])cc1C5(C)C` (configuration not stated) gave a Ki in data set [1] of 160 nM.

As to `CCNC(=O)Cc1ccc2c(c1)C(C)(C)C1C3C=C4C5=[N+](CCC4OC3CCN21)c1ccc(S(=O)(=O)[O-])cc1C5(C)C` (configuration not stated), the Ki in data set [1] was above 1000 nM.

In the case of `CC1(C)C2=C3C=C4C5=[N+](CCC4OC3CCN2c2ccc(CC(=O)NCCN(CCOc3ccc(NS(C)(=O)=O)cc3)CCc3ccc(NS(C)(=O)=O)cc3)cc21)c1ccc(S(=O)(=O)[O-])cc1C5(C)C` (configuration not stated), affinity in data set [1] was put at a Ki of 7300 nM.

`CN(C)c1ccc2c(c1)Oc1cc(N(C)C)ccc1C21OC(=O)c2cc(C(=O)NCCCCCCN(CCOc3ccc(NS(C)(=O)=O)cc3)CCc3ccc(NS(C)(=O)=O)cc3)ccc21` had a Ki in data set [1] of 89 nM.

As to `CN(C)c1ccc2c(c1)Oc1cc(N(C)C)ccc1C21OC(=O)c2cc(C(=O)N(CCOc3ccc(NS(C)(=O)=O)cc3)CCc3ccc(NS(C)(=O)=O)cc3)ccc21`, the Ki in data set [1] was above 1000 nM.

For `CS(=O)(=O)Nc1ccc(CCN(CCCCCCNC(=O)c2ccc3c(c2)C(=O)OC32c3ccc(O)cc3Oc3cc(O)ccc32)CCOc2ccc(NS(C)(=O)=O)cc2)cc1`, the Ki in data set [1] came to 15 nM.

Take `CS(=O)(=O)Nc1ccc(CCN(CCOc2ccc(NS(C)(=O)=O)cc2)C(=O)c2ccc3c(c2)C(=O)OC32c3ccc(O)cc3Oc3cc(O)ccc32)cc1`: in data set [1], the inhibition constant (Ki) is 980 nM.

As for `CCN1CCCc2cc3c(cc21)OC1=CC2=[N+](CCCC(=O)N(CCOc4ccc(NS(C)(=O)=O)cc4)CCc4ccc(NS(C)(=O)=O)cc4)CCCC2=CC1N3` (configuration not stated), affinity in data set [1] was put at a Ki of 3.6 nM.

The compound `CC1(C)C2=C3C=C4C5=[N+](CCC4OC3CCN2c2ccc(CC(=O)NCCCCN(CCOc3ccc(NS(C)(=O)=O)cc3)CCc3ccc(NS(C)(=O)=O)cc3)cc21)c1ccc(S(=O)(=O)[O-])cc1C5(C)C` (configuration not stated) displayed a Ki in data set [1] of 18 nM.

Take `CC1(C)C2=C3C=C4C5=[N+](CCC4OC3CCN2c2ccc(CCC(=O)NCCCCCCN(CCOc3ccc(NS(C)(=O)=O)cc3)CCc3ccc(NS(C)(=O)=O)cc3)cc21)c1ccc(S(=O)(=O)[O-])cc1C5(C)C` (configuration not stated): the Ki in data set [1] was 19 nM.

Take `CN(CCOc1ccc(NS(C)(=O)=O)cc1)CCc1ccc(NS(C)(=O)=O)cc1` [DOFETILIDE]: on hERG (KCNH2), the inhibition at 0.025 µM amounted to 80%. In data set [2], this compound gave an apparent permeability from basolateral to apical (Papp B→A) of 14.3 ×10⁻⁶ cm/s. This compound also gave a Papp A→B in data set [3] of 15.7 ×10⁻⁶ cm/s.
